Article PMC6599250, “Functional diversity of inhibitors tackling the differentiation blockage of MLL-rearranged leukemia” (Journal of Hematology & Oncology, 2019)
Read-outs that look alike come from different tables or passages of the source.

How the values were obtained:
[1] = test system: OCI-AML-3 (MLL-WT) cells; assay: Cell proliferation (alamarBlue) OCI-AML-3; type: cell-based; settings: Homo sapiens, OCI-AML-3, OCI-AML-3 (MLL-WT), read-out: IC50 proliferation
Procedure: (§1) Cells were seeded in the optimal growth medium at 4000–5000 cells/well in a 96 MTP and cultured 18–24 h before inhibitor treatment.

[2] = test system: MLL-fused cell lines (MV4-11, MOLM-13); assay: CD11b protein expression by flow cytometry, MLL-fused lines; type: cell-based; settings: 4 and 7 days of treatment
Procedure: (§2) Four thousand cells per well were seeded 24 h before they were treated with the indicated inhibitor in a 96 MTP. After 4 or 7 days of treatment, cells were washed with PBS and stained with CD11b - APC (BioLegend, San Diego, California, USA) and DAPI (Thermo Fisher Scientific, Waltham, Massachusetts, USA) or AnnexinV – FITC (BioLegend, San Diego, California, USA) and PI solution (Sigma-Aldrich St. Louis, Missouri, USA) using the FACS Canto II (BD Biosciences, Heidelberg, Germany) and data was analyzed with FACSDiva software.

[3] = test system: OCI-AML-5 (MLL-WT) cells; assay: Cell proliferation (alamarBlue) OCI-AML-5; type: cell-based; settings: Homo sapiens, OCI-AML-5, OCI-AML-5 (MLL-WT), read-out: IC50 proliferation
Procedure: as §1

[4] = test system: H3K79me2 on HOXA9 and MEIS1; settings: clinical phase I study; cited from earlier work
[5] = test system: NOMO-1 (MLL-AF9) cells; assay: Cell proliferation (alamarBlue) NOMO-1; type: cell-based; settings: Homo sapiens, NOMO-1, NOMO-1 (MLL-AF9), read-out: IC50 proliferation
Procedure: as §1

[6] = test system: HL-60 cells; assay: CD11b protein expression by flow cytometry, HL-60; type: cell-based; settings: non-fused HL-60 cell line, 4 and 7 days of treatment
Procedure: as §2

[7] = test system: OCI-AML-2 (MLL-AF9) cells; assay: Cell proliferation (alamarBlue) OCI-AML-2; type: cell-based; settings: Homo sapiens, OCI-AML2, OCI-AML-2 (MLL-AF9), read-out: IC50 proliferation
Procedure: as §1

[8] = test system: EOL-1 (MLL-TD) cells; assay: Cell proliferation (alamarBlue) EOL-1; type: cell-based; settings: Homo sapiens, EOL1, EOL-1 (MLL-TD), read-out: IC50 proliferation
Procedure: as §1

[9] = test system: MOLM-14 (MLL-AF9) cells; assay: Cell proliferation (alamarBlue) MOLM-14; type: cell-based; settings: Homo sapiens, MOLM-14, MOLM-14 (MLL-AF9), read-out: IC50 proliferation
Procedure: as §1

[10] = test system: MV4-11 (MLL-AF4) cells; assay: Cell proliferation (alamarBlue) MV4-11; type: cell-based; settings: Homo sapiens, MV4-11, MV4-11 (MLL-AF4), read-out: IC50 proliferation
Procedure: as §1

[11] = test system: selected MLL-fused models; assay: Cell proliferation, AML/ALL panel; type: cell-based; settings: specifically in selected MLL-fused models (Fig. 2a); read-out: proliferation IC50 (significant effects)
Procedure: as §1

[12] = test system: RS4;11 (MLL-AF4) cells; assay: Cell proliferation (alamarBlue) RS4;11; type: cell-based; settings: Homo sapiens, RS4-11, RS4;11 (MLL-AF4), read-out: IC50 proliferation
Procedure: as §1

[13] = test system: SEM (MLL-AF4) cells; assay: Cell proliferation (alamarBlue) SEM; type: cell-based; settings: SEM (MLL-AF4), read-out: IC50 proliferation
Procedure: as §1

[14] = test system: MOLM-13 (MLL-AF9) cells; assay: Cell proliferation (alamarBlue) MOLM-13; type: cell-based; settings: Homo sapiens, MOLM-13, MOLM-13 (MLL-AF9), read-out: IC50 proliferation
Procedure: as §1

[15] = test system: KOPN-8 (MLL-ENL) cells; assay: Cell proliferation (alamarBlue) KOPN-8; type: cell-based; settings: Homo sapiens, KOPN-8, KOPN-8 (MLL-ENL), read-out: IC50 proliferation
Procedure: as §1

[16] = test system: HL-60 (MLL-WT) cells; assay: Cell proliferation (alamarBlue) HL-60; type: cell-based; settings: for IC50: Homo sapiens, HL-60 (MLL-WT), read-out: IC50 proliferation
Procedure: as §1

[17] = test system: Jurkat (MLL-WT) cells; assay: Cell proliferation (alamarBlue) Jurkat; type: cell-based; settings: Homo sapiens, Jurkat (MLL-WT)
Procedure: as §1

[18] = test system: ML-2 (MLL-AF6) cells; assay: Cell proliferation (alamarBlue) ML-2; type: cell-based; settings: ML-2 (MLL-AF6), read-out: IC50 proliferation
Procedure: as §1

[19] = test system: MV4-11, MOLM-13 and HL-60 cells; assay: Cell cycle analysis (PI, flow cytometry); type: cell-based; settings: 4 days of treatment (Figure S2)
Procedure: Cells were washed with PBS and fixed overnight at − 20 °C with 70% ethanol. Fixed cells were stained with PI solution (Sigma-Aldrich St. Louis, MO, USA) solution containing RNase A (Qiagen, Hilden, Germany). Fluorescence was measured with FACS Canto II (BD Biosciences, Heidelberg, Germany) flow cytometer and data was analyzed with FACSDiva software.

CC(C)N(C[C@H]1O[C@@H](n2cnc3c(N)ncnc32)[C@H](O)[C@@H]1O)[C@H]1C[C@@H](CCc2nc3cc(C(C)(C)C)ccc3[nH]2)C1 [EPZ-5676]
IC50 ([1]; D1): > 10 µM
IC50 ([1]; D4): > 10 µM
IC50 ([1]; D7): > 10 µM
CD11b protein level [2]: increased CD11b protein level in a dose and time-dependent manner
IC50 ([3]; D1): > 10 µM
IC50 ([3]; D4): > 10 µM
IC50 ([3]; D7): > 10 µM
H3K79me2 on HOXA9 and MEIS1 in AML patients [4]: significant reduction of H3K79me2 on HOXA9 and MEIS1
IC50 ([5]; D1): > 10 µM
IC50 ([5]; D4): > 10 µM
IC50 ([5]; D7): 0.15 µM
CD11b level [6]: did not increase CD11b level
IC50 ([7]; D1): > 10 µM
IC50 ([7]; D4): > 10 µM
IC50 ([7]; D7): > 10 µM
IC50 ([8]; D1): > 10 µM
IC50 ([8]; D4): > 10 µM
IC50 ([8]; D7): 0.12 µM
IC50 ([9]; D1): > 10 µM
IC50 ([9]; D4): 0.14 µM
IC50 ([9]; D7): 0.12 µM
IC50 ([10]; D1): > 10 µM
IC50 ([10]; D4): 0.25 µM
IC50 ([10]; D7): 0.28 µM
IC50 [11]: < 1 µM
IC50 ([12]; D1): > 10 µM
IC50 ([12]; D4): > 10 µM
IC50 ([12]; D7): > 10 µM
IC50 ([13]; D1): > 10 µM
IC50 ([13]; D4): > 10 µM
IC50 ([13]; D7): > 10 µM
IC50 ([14]; D1): > 10 µM
IC50 ([14]; D4): > 10 µM
IC50 ([14]; D7): 6.57 µM
IC50 ([15]; D1): > 10 µM
IC50 ([15]; D4): > 10 µM
IC50 ([15]; D7): > 10 µM
anti-proliferation effect in non-fused HL-60 ([16]; HL-60, 4 days of treatment (Fig. 1a)): no significant effects
IC50 ([16]; 24 h, 1 day of treatment (D1)): > 10 µM
IC50 ([16]; 96 h, 4 days of treatment (D4)): > 10 µM
IC50 ([16]; 168 h, 7 days of treatment (D7)): > 10 µM
IC50 ([17]; D1, read-out: IC50 proliferation): > 10 µM
IC50 ([17]; D4, read-out: IC50 proliferation): > 10 µM
IC50 ([17]; D7, read-out: IC50 proliferation): > 10 µM
IC50 ([18]; D1): > 10 µM
IC50 ([18]; D4): > 10 µM
IC50 ([18]; D7): > 10 µM
cell cycle effect [19]: decrease of cells in S and G2/M phase with increasing concentrations
